From paper PMC10766964, “Copper-catalyzed synthesis of pyrazolo[1,5-a]pyrimidine based triazole-linked glycohybrids: mechanistic insights and bio-applications” (Scientific Reports, 2024)

Test system: MDA-MB-231 (human breast cancer) cell line
Experiment: MTT cell viability assay in MDA-MB-231 cells
Type: cell-based
Conditions: Table 2, MDA-MB-231, MTT, 72 h, read-out: Cell viability (%) ± SD
Protocol: Thus, we screened the synthesized library of pyrazolo[1,5-a]pyrimidin-7-ols 4a–4i. Anticancer activity (in terms of growth inhibition/decreased cell viability with respect to control) of all synthesized compounds (n = 9) was investigated by MTT assay in MDA-MB-231 (human breast cancer) cell line at different concentrations for 72 h. […] Thus, it was aimed to investigate the anticancer activity of a synthesized library of triazole-linked glycohybrids of pyrazolo[1,5-a]pyrimidines. […] The MTT assay was used to investigate the anticancer activity of twenty-seven synthesized compounds on the growth inhibition and decrement in cell viability of MDA-MB-231 (human breast cancer). Different concentrations were tested for 72 h, and the results were compared to a control. MDA-MB-231, a human breast cancer cell line, was cultured under standard conditions. Specifically, they were grown in Dulbecco’s Modified Eagle’s Medium (DMEM) supplemented with 10% heat-inactivated Fetal Bovine Serum (FBS) and 1% penicillin–streptomycin. The cells were maintained as a monolayer in a 100 mm culture plate and were used for experiments before reaching their 8th passage. Subculturing was performed every third-day using trypsin EDTA treatment. All incubation and maintenance procedures were carried out in a humidified CO2 incubator at 37 °C. To evaluate cell viability, the MTT assay was conducted following standard procedures. After 72 h of cell incubation with or without each compound, cell viability was assessed using MTT (3-(4,5-dimethylthiazol-2-yl)-2,5-diphenyltetrazolium bromide), which is a colorimetric method for determining the number of viable cells in various assays including proliferation, cytotoxicity, or chemosensitivity. The MTT reagent was added to the cells after removal of the medium and incubated for 3 h at 37 °C in the CO2 incubator. The formazan product, which is […] in the tissue culture medium, was dissolved in DMSO, and the absorbance of the formazan product was directly measured at 595 nm using a multimode plate reader without additional processing. The absorbance values are directly proportional to the number of viable cells in culture. The percentage of viable cells in each group was determined relative to the untreated control cells.

CC(=O)OC[C@H]1O[C@@H](n2cc(COc3cc(-c4ccc(C(C)C)cc4)nc4ccnn34)nn2)[C@H](OC(C)=O)[C@@H](OC(C)=O)[C@@H]1OC(C)=O [Compound 9g, (2R,3R,4S,5R,6R)-2-(acetoxymethyl)-6-(4-(((5-(4-isopropylphenyl)pyrazolo[1,5-a]pyrimidin-7-yl)oxy)methyl)-1H-1,2,3-triazol-1-yl)tetrahydro-2H-pyran-3,4,5-triyl triacetate]
viability at 10 µM: 110 ± 13.5% | viability at 25 µM: 103 ± 3.51% | viability at 50 µM: 68.5 ± 17.7%

CC(=O)OC[C@H]1O[C@@H](n2cc(COc3cc(-c4ccc5c(c4)OCO5)nc4ccnn34)nn2)[C@H](OC(C)=O)[C@@H](OC(C)=O)[C@@H]1OC(C)=O [Compound 9i, (2R,3R,4S,5R,6R)-2-(acetoxymethyl)-6-(4-(((5-(benzo[d][1,3]dioxol-5-yl)pyrazolo[1,5-a]pyrimidin-7-yl)oxy)methyl)-1H-1,2,3-triazol-1-yl)tetrahydro-2H-pyran-3,4,5-triyl triacetate]
viability at 10 µM: 85.1 ± 4.09% | viability at 25 µM: 82.5 ± 2.58% | viability at 50 µM: 80.4 ± 7.36%

CC(=O)OC[C@H]1O[C@@H](n2cc(COc3cc(-c4ccc(C)cc4)nc4ccnn34)nn2)[C@H](OC(C)=O)[C@@H](OC(C)=O)[C@H]1OC(C)=O [Compound 10a, (2R,3S,4S,5R,6R)-2-(acetoxymethyl)-6-(4-(((5-(p-tolyl)pyrazolo[1,5-a]pyrimidin-7-yl)oxy)methyl)-1H-1,2,3-triazol-1-yl)tetrahydro-2H-pyran-3,4,5-triyl triacetate]
viability at 10 µM: 81.7 ± 8.36% | viability at 25 µM: 78.5 ± 6.73% | viability at 50 µM: 68.8 ± 10.4%

COc1ccc(-c2cc(OCc3cn([C@@H]4O[C@H](COC(C)=O)[C@H](OC(C)=O)[C@H](OC(C)=O)[C@H]4OC(C)=O)nn3)n3nccc3n2)cc1 [Compound 10b, (2R,3S,4S,5R,6R)-2-(acetoxymethyl)-6-(4-(((5-(4-methoxyphenyl)pyrazolo[1,5-a]pyrimidin-7-yl)oxy)methyl)-1H-1,2,3-triazol-1-yl)tetrahydro-2H-pyran-3,4,5-triyl triacetate]
viability at 10 µM: 92.5 ± 9.39% | viability at 25 µM: 85.2 ± 8.63% | viability at 50 µM: 70.5 ± 6.24%

CC(=O)OC[C@H]1O[C@@H](n2cc(COc3cc(-c4ccc(Br)cc4)nc4ccnn34)nn2)[C@H](OC(C)=O)[C@@H](OC(C)=O)[C@H]1OC(C)=O [Compound 10c, (2R,3S,4S,5R,6R)-2-(acetoxymethyl)-6-(4-(((5-(4-bromophenyl)pyrazolo[1,5-a]pyrimidin-7-yl)oxy)methyl)-1H-1,2,3-triazol-1-yl)tetrahydro-2H-pyran-3,4,5-triyl triacetate]
viability at 10 µM: 79.5 ± 2.43% | viability at 25 µM: 77.8 ± 2.43% | viability at 50 µM: 74 ± 2.62%

CC(=O)OC[C@H]1O[C@@H](n2cc(COc3cc(-c4ccc(F)cc4)nc4ccnn34)nn2)[C@H](OC(C)=O)[C@@H](OC(C)=O)[C@H]1OC(C)=O [Compound 10e, (2R,3S,4S,5R,6R)-2-(acetoxymethyl)-6-(4-(((5-(4-fluorophenyl)pyrazolo[1,5-a]pyrimidin-7-yl)oxy)methyl)-1H-1,2,3-triazol-1-yl)tetrahydro-2H-pyran-3,4,5-triyl triacetate]
viability at 10 µM: 78.4 ± 9.97% | viability at 25 µM: 68.6 ± 10.1% | viability at 50 µM: 71.3 ± 6.17%

CC(=O)OC[C@H]1O[C@@H](n2cc(COc3cc(-c4ccc(C(C)C)cc4)nc4ccnn34)nn2)[C@H](OC(C)=O)[C@@H](OC(C)=O)[C@H]1OC(C)=O [Compound 10g, (2R,3S,4S,5R,6R)-2-(acetoxymethyl)-6-(4-(((5-(4-isopropylphenyl)pyrazolo[1,5-a]pyrimidin-7-yl)oxy)methyl)-1H-1,2,3-triazol-1-yl)tetrahydro-2H-pyran-3,4,5-triyl triacetate]
viability at 10 µM: 85.2 ± 3.5% | viability at 25 µM: 79.5 ± 8.96% | viability at 50 µM: 78.7 ± 2.56%

CC(=O)OC[C@H]1O[C@@H](n2cc(COc3cc(-c4ccc5ccccc5c4)nc4ccnn34)nn2)[C@H](OC(C)=O)[C@@H](OC(C)=O)[C@H]1OC(C)=O [Compound 10h, (2R,3S,4S,5R,6R)-2-(acetoxymethyl)-6-(4-(((5-(naphthalen-2-yl)pyrazolo[1,5-a]pyrimidin-7-yl)oxy)methyl)-1H-1,2,3-triazol-1-yl)tetrahydro-2H-pyran-3,4,5-triyl triacetate]
viability at 10 µM: 75 ± 8.31% | viability at 25 µM: 89.6 ± 9.91% | viability at 50 µM: 57.7 ± 10.8%

CC(=O)OC[C@H]1O[C@@H](n2cc(COc3cc(-c4ccc5c(c4)OCO5)nc4ccnn34)nn2)[C@H](OC(C)=O)[C@@H](OC(C)=O)[C@H]1OC(C)=O [Compound 10i, (2R,3S,4S,5R,6R)-2-(acetoxymethyl)-6-(4-(((5-(benzo[d][1,3]dioxol-5-yl)pyrazolo[1,5-a]pyrimidin-7-yl)oxy)methyl)-1H-1,2,3-triazol-1-yl)tetrahydro-2H-pyran-3,4,5-triyl triacetate]
viability at 10 µM: 100 ± 9.67% | viability at 25 µM: 99.25 ± 0.34% | viability at 50 µM: 98.5 ± 1.88%

CC(=O)OC[C@H]1O[C@H](n2cc(COc3cc(-c4ccc(C)cc4)nc4ccnn34)nn2)[C@@H](OC(C)=O)[C@@H](OC(C)=O)[C@@H]1OC(C)=O [Compound 11a, (2R,3R,4S,5S,6S)-2-(acetoxymethyl)-6-(4-(((5-(p-tolyl)pyrazolo[1,5-a]pyrimidin-7-yl)oxy)methyl)-1H-1,2,3-triazol-1-yl)tetrahydro-2H-pyran-3,4,5-triyl triacetate]
viability at 10 µM: 98 ± 7.7% | viability at 25 µM: 91.8 ± 7.09% | viability at 50 µM: 96.7 ± 9.12%

COc1ccc(-c2cc(OCc3cn([C@H]4O[C@H](COC(C)=O)[C@@H](OC(C)=O)[C@H](OC(C)=O)[C@@H]4OC(C)=O)nn3)n3nccc3n2)cc1 [Compound 11b, (2R,3R,4S,5S,6S)-2-(acetoxymethyl)-6-(4-(((5-(4-methoxyphenyl)pyrazolo[1,5-a]pyrimidin-7-yl)oxy)methyl)-1H-1,2,3-triazol-1-yl)tetrahydro-2H-pyran-3,4,5-triyl triacetate]
viability at 10 µM: 99.5 ± 10.2% | viability at 25 µM: 95.2 ± 10.6% | viability at 50 µM: 70.4 ± 10.5%

CC(=O)OC[C@H]1O[C@H](n2cc(COc3cc(-c4ccc(Br)cc4)nc4ccnn34)nn2)[C@@H](OC(C)=O)[C@@H](OC(C)=O)[C@@H]1OC(C)=O [Compound 11c, (2R,3R,4S,5S,6S)-2-(acetoxymethyl)-6-(4-(((5-(4-bromophenyl)pyrazolo[1,5-a]pyrimidin-7-yl)oxy)methyl)-1H-1,2,3-triazol-1-yl)tetrahydro-2H-pyran-3,4,5-triyl triacetate]
viability at 10 µM: 81.3 ± 7.65% | viability at 25 µM: 76.5 ± 6.58% | viability at 50 µM: 72.5 ± 8.45%

CC(=O)OC[C@H]1O[C@H](n2cc(COc3cc(-c4ccc(Cl)cc4)nc4ccnn34)nn2)[C@@H](OC(C)=O)[C@@H](OC(C)=O)[C@@H]1OC(C)=O [Compound 11d, (2R,3R,4S,5S,6S)-2-(acetoxymethyl)-6-(4-(((5-(4-chlorophenyl)pyrazolo[1,5-a]pyrimidin-7-yl)oxy)methyl)-1H-1,2,3-triazol-1-yl)tetrahydro-2H-pyran-3,4,5-triyl triacetate]
viability at 10 µM: 95.8 ± 5.85% | viability at 25 µM: 92.1 ± 6% | viability at 50 µM: 89 ± 1.1%

CC(=O)OC[C@H]1O[C@H](n2cc(COc3cc(-c4ccc(F)cc4)nc4ccnn34)nn2)[C@@H](OC(C)=O)[C@@H](OC(C)=O)[C@@H]1OC(C)=O [Compound 11e, (2R,3R,4S,5S,6S)-2-(acetoxymethyl)-6-(4-(((5-(4-fluorophenyl)pyrazolo[1,5-a]pyrimidin-7-yl)oxy)methyl)-1H-1,2,3-triazol-1-yl)tetrahydro-2H-pyran-3,4,5-triyl triacetate]
viability at 10 µM: 98.4 ± 3.62% | viability at 25 µM: 90.1 ± 6.77% | viability at 50 µM: 88.6 ± 6.27%

CC(=O)OC[C@H]1O[C@H](n2cc(COc3cc(-c4ccc(C(F)(F)F)cc4)nc4ccnn34)nn2)[C@@H](OC(C)=O)[C@@H](OC(C)=O)[C@@H]1OC(C)=O [Compound 11f, (2R,3R,4S,5S,6S)-2-(acetoxymethyl)-6-(4-(((5-(4-(trifluoromethyl)phenyl)pyrazolo[1,5-a]pyrimidin-7-yl)oxy)methyl)-1H-1,2,3-triazol-1-yl)tetrahydro-2H-pyran-3,4,5-triyl triacetate]
viability at 10 µM: 79.6 ± 4.7% | viability at 25 µM: 74.5 ± 4.44% | viability at 50 µM: 86.5 ± 7.27%

CC(=O)OC[C@H]1O[C@H](n2cc(COc3cc(-c4ccc5ccccc5c4)nc4ccnn34)nn2)[C@@H](OC(C)=O)[C@@H](OC(C)=O)[C@@H]1OC(C)=O [Compound 11h, (2R,3R,4S,5S,6S)-2-(acetoxymethyl)-6-(4-(((5-(naphthalen-2-yl)pyrazolo[1,5-a]pyrimidin-7-yl)oxy)methyl)-1H-1,2,3-triazol-1-yl)tetrahydro-2H-pyran-3,4,5-triyl triacetate]
viability at 10 µM: 101 ± 9.28% | viability at 25 µM: 89.8 ± 2.22% | viability at 50 µM: 82.5 ± 5.45%
